Measured values taken from patent EP0738149B1 (priority 1994, dated 1995).
Where a name gives a salt, the structure may show the parent alone. Read-outs that look alike come from different tables or passages of the source.

Key:
rats [1] = experiment: Neurotoxicity in rats (positional sense test and gait stance test), p.o.; conditions: rats, p.o.
Experimental: (§1) Neurotoxicity of the claimed agents was also assessed in mice (i.p. administration) by the rotorod ataxia test and/or in rats (p.o. administration) by positional sense test and gait stance test. […] The term quantitating the neurotoxicity is the medial neurological toxic dose (TD50), was determined in the above tests.

in vivo = conditions: rat, in vivo, po
Experimental: as §1

rats [2] = experiment: Maximal electroshock (MES) model in rats, p.o.;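 for all read-outs here: rat MES model gauging antiepileptic efficacy versus generalized and partial seizures after oral dosing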; assay type: in vivo; conditions: for ED50: Rattus norvegicus, po
mice [3] = experiment: Neurotoxicity in mice (rotorod ataxia test), i.p.
Experimental: as §1

[4] = Neurotoxicity in mice (rotorod ataxia test), i.p.; conditions: mouse, in vivo, ip
Experimental: as §1

mice [5] = experiment: Maximal electroshock (MES) model in mice, i.p.;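 for all read-outs here: Electroshock-induced convulsion model serving to demonstrate antiepileptic efficacy against generalized and partial seizures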; assay type: in vivo; conditions: for ED50: Mus musculus, ip; for ED50 / MICE MES ED50: Table 15; for MICE MES ED50: i.p.; for activity in the MES model in mice: statement in words
mice [6] = conditions: for MICE scMet ED50: i.p.; for ED50: Mus musculus, ip
rats [7] = conditions: Rattus norvegicus, po, read-out: RATS scMet ED50
male ICR albino mice = experiment: Hypobaric hypoxia survival time in mice; assay type: in vivo
Experimental: Dessicator B was disconnected and allowed to equilibrate with room air whilst dessicator A was evacuated to a pressure of 100mmHg. […] The survival time from the moment of induction of hypoxia to the time of cessation of respiration was recorded for each mouse for a maximum of 15 minutes after which time room air was reintroduced to dessicator B. Survivors were monitored for signs of lethargy or vitality.
Effect of drug treatment was assessed as the percent of the survival time of the drug treated group with respect to the saline injected or vehicle injected control group. Control groups were run twice, before and after each experimental group and consisted of 12-16 mice in groups of 4 mice. Each experimental group always consisted of 4 mice to ensure a constant residual volume of oxygen in all tests. The effect of each dose of test drug was determined in duplicate i.e. two groups of 4 mice.
All drugs were administered intra-peritoneally at the dose indicated one hour prior to exposure to hypoxia.

[8] = test system: mechanically dissociated neonatal rat cerebellum; experiment: Reversal of NMDA induced cell death in cultures of neonatal rat cerebellum; assay type: cell-based; conditions: separate experiment, Maximum Protection possible 90%
Experimental: The cerebellum was aseptically dissociated from 6 or 7-day old rat pups and placed in a 15ml sterile plastic conical tube containing 3ml of Dulbecco's modified Eagle's medium (DMEM) with a high glucose concentration ([…]) and 2mM (v/v) L-glutamine and an antibiotic antimitotic mixture. The cerebella were then dissociated after 20-25 passages through a sterile 13 gauge, 10cm long stainless steel needle attached to a 5ml syringe with an inserted 45 micrometer pore nylon sieve. The dissociated cells were centrifuged at 200g for 5 minutes. The supernatant was discarded and the cells resuspended in medium enriched with 15% (v/v) heat inactivated fetal calf serum. Cell viability was determined by the tryptan blue exclusion test.
Cells were plated at a density of 200/mm^2 on poly-L-lysine coated surfaces. Poly-L-lysine coated glass coverslips were prepared at least one hour in advance of plating by immersing sterile coverslips in sterile distilled water solution containing 15 microgram/ml poly-L-lysine, and washing in sterile water just prior to use. The plated cells were covered with enriched medium and incubated at 37°C in an atmosphere of 5% CO2 in air and 97% humidity. After three days in culture, the media was replaced with media containing the desired test compound. Each test compound was tested in duplicate. Toxic-dose response was determined for each compound.
Four groups were run in each set of experiments; • I. Control, consisting of enriched media alone, • II. N-methyl-D-aspartate (NMDA, 1mM for 3 hours) as the cytotoxic challenge, • III. Test compound plus NMDA, and • IV. Positive control, spermine(0.01 micromoles) plus NMDA.
Nerve cell survival was evaluated by phase contrast microscopy and tryptan blue staining after 24 hours.
Surviving cells in culture are measured relative to control (100%), as described above. Percent protection is the Cell Survival for the test compound minus the NMDA effect. Thus, maximal protection is 100% minus 30% NMDA effect i.e. […]. The Effective Protection was calculated as the percent of the Percent Protection (X) divided by the maximal protection value (e.g. X x 100/70).

rats [9] = experiment: Closed head injury in rats: motor function (Neurological Severity Status), Experiments 4A-4E
Male mongolian gerbils = experiment: Global brain ischemia in gerbils (CA1 pyramidal neurons); assay type: in vivo; conditions: 3 injections, fraction of hippocampi protected from ischemia, 14 days post-ischemia
Experimental: Each artery was clamped for 5 minutes with aneurysm clips to produce global brain ischemia. The anesthesia was discontinued upon clamping. After 5 minutes the clamps were removed and the wound closed with skin clips.
For treatment, the test compound or vehicle were injected intra-peritoneally (ip) in a volume of 50 microliters of solvent per 10g body weight. The first injection was given two minutes after clamp removal, and thereafter daily for the next 2 post-operative days (total of 3 injections).
Seven groups each of 4-8 animals were compared: • I. Control; (sham- or unoperated and saline treated), • II. Vehicle treated, unoperated (when solvent is other than saline), • III. Ischemia - untreated or saline treated), • IV. Ischemia - vehicle treated (when solvent is other than saline), • V. Ischemia - Test compound treated, one sub-group per concentration tested, • VI. Ischemia and pentobarbital (40 mg/kg) as positive control).
Analysis of neuronal damage was performed 14 days post-ischemia by counting pyramidal neurons throughout the CA1 layer of the anterior hippocampus in […] thick (paraffin) coronal brain sections stained with hematoxylin and erosin.
Percent Protection values represent the fraction of hippocampi protected from ischemia in a group of animals treated with the stated dose of compound.

[10] = read-out: MICE scMet ED50, mice, i.p., Table 16
[11] = rats, p.o., Table 15, read-out: RATS MES 50
[12] = read-out: RATS MES 50, rats, p.o., Table 15
[13] = Exp 4A, 0.1mg/kg i.p. at 0,4,8 and 12 hours post-trauma
[14] = Exp 4B, 0.1mg/kg once a day for 14 days

NC1CCc2ccccc21 (racemic) [A, 1-aminoindan]
RATS TD50 (rats [1]; Table 16): >168 mg/kg
TD50 (in vivo): > 168 mg/kg
ED50 (rats [2]; read-out: RATS MES 50): 36 mg/kg
MICE TD50 (mice [3]; mice, i.p., Table 16): >100 mg/kg
TD50 [4]: > 100 mg/kg

NC(=O)CNC1CCc2ccccc21 (racemic) [Example 3, (rac)-N-(2-Acetamido)-1-aminoindan.HCl]
ED50 (mice [5]): 83 mg/kg
MICE MES ED50 (mice [5]): <100 mg/kg
TD50 (in vivo): > 50 mg/kg
RATS MES 50 (rats [2]; rats, p.o., Table 15): <50 mg/kg
MICE scMet ED50 (mice [6]; Table 16): 36 mg/kg
MICE scMet ED50 (mice [6]; Table 16, listed as 3*): >130 mg/kg
MICE TD50 (mice [3]; mice, i.p., Table 15): >100 mg/kg
MICE TD50 (mice [3]; mice, i.p., Table 16): 126 mg/kg
TD50 ([4]; MICE TD50, mice, Table 15): 127 mg/kg
TD50 ([4]; MICE TD50, mice, Table 16): 127 mg/kg

NC(=O)CNC1CCc2ccc(F)cc21 (racemic) [Example 5, (rac)-6-Fluoro-N-(2-acetamido)-1-aminoindan.HCl]
ED50 (mice [5]): < 100 mg/kg
MICE MES ED50 (mice [5]): 58 mg/kg
activity in the MES model in mice (mice [5]): showed activity
ED50 (mice [6]; [10]): > 200 mg/kg
MICE TD50 (mice [3]; mice, i.p., Table 15): >300 mg/kg
TD50 ([4]; MICE TD50, mice, Table 16): 138 mg/kg

O=CNC1CCc2ccccc21 (racemic) [Example 8, (rac)-N-Formyl-1-aminoindan]
ED50 (rats [7]): > 250 mg/kg
RATS TD50 (rats [1]; Table 16): >500 mg/kg
TD50 (in vivo): > 500 mg/kg
ED50 (rats [2]; [11]): 24 mg/kg

COc1ccc2c(c1)C(NC(C)=O)CC2 (racemic) [Example 26, (rac) 6-methoxy-N-acetyl-1-aminoindan]
ED50 (rats [7]): > 250 mg/kg
RATS TD50 (rats [1]; Table 16): >500 mg/kg
TD50 (in vivo): > 500 mg/kg
ED50 (rats [2]; [11]): 40 mg/kg

O=C(NC1CCc2ccccc21)c1ccccc1 (racemic) [Example 46, (rac)-N-Benzoyl-1-aminoindan]
ED50 (mice [5]): 82 mg/kg
ED50 (mice [6]; [10]): > 500 mg/kg
MICE TD50 (mice [3]; mouse, in vivo, ip): >500 mg/kg
TD50 ([4]; MICE TD50): 500 mg/kg

Cl.NC(=O)CN[C@@H]1CCc2ccccc21 [D, (R)-Indanylglycinamide-HCl salt]
MICE MES ED50 (mice [5]): 83 mg/kg
RATS TD50 (rats [1]; Table 15): >180 mg/kg
RATS TD50 (rats [1]; Table 16): >180 mg/kg
RATS MES 50 (rats [2]; rats, p.o., Table 15): 105 mg/kg
MICE scMet ED50 (mice [6]; Table 16): >130 mg/kg
MICE TD50 (mice [3]; mice, i.p., Table 15): 127 mg/kg
MICE TD50 (mice [3]; mice, i.p., Table 16): 127 mg/kg

C#CCN[C@@H]1CCc2ccccc21.Cl [E, (R)-N-propargyl-1-aminoindan HCl salt]
ED50 (rats [7]): > 154 mg/kg
ED50 (mice [5]): 79 mg/kg
ED50 (rats [2]; [12]): < 50 mg/kg

NC(=O)CN[C@@H]1CCc2ccccc21 [Example 1, (R)-N-(2-Aeetamido)-1-aminoindan.HCl]
ED50 (mice [5]): 77 mg/kg
RATS TD50 (rats [1]; Table 16): >50 mg/kg
TD50 (in vivo): > 50 mg/kg
RATS MES 50 (rats [2]; rats, p.o., Table 15): 50 mg/kg
ED50 (mice [6]; read-out: MICE scMet ED50): > 200 mg/kg
TD50 ([4]; MICE TD50, mice, Table 15): 198 mg/kg
TD50 ([4]; MICE TD50, mice, Table 16): 198 mg/kg

C#CCN[C@H]1CCc2ccccc21.CS(=O)(=O)O [H, (S)-N-propargyl-1-aminoindan mesylate salt]
ED50 (mice [5]): ≤ 50 mg/kg
ED50 (rats [2]; [12]): ≤ 50 mg/kg
ED50 (mice [6]; read-out: MICE scMet ED50): > 200 mg/kg

NC1CCc2ccc(F)cc21 (centres unmarked) [I, 6-fluoro-1-aminoindan]
ED50 (rats [7]): > 100 mg/kg
ED50 (mice [5]): 66 mg/kg
RATS TD50 (rats [1]; Table 16): >50 mg/kg
TD50 (in vivo): > 50 mg/kg
ED50 (rats [2]; [11]): < 50 mg/kg
MICE TD50 (mice [3]; mouse, in vivo, ip): 58 mg/kg
TD50 ([4]; MICE TD50): 58 mg/kg

C#CCNC1CCc2ccc(F)cc21 (centres unmarked) [L, 6-fluoro-N-propargyl-1-aminoindan]
ED50 (rats [7]): > 300 mg/kg
ED50 (mice [5]): 74 mg/kg
activity in the MES model in mice (mice [5]): showed activity
RATS TD50 (rats [1]; Table 16): >50 mg/kg
TD50 (in vivo): > 50 mg/kg
ED50 (rats [2]; [11]): 50 mg/kg
MICE TD50 (mice [3]; mouse, in vivo, ip): 188 mg/kg
TD50 ([4]; MICE TD50): 188 mg/kg

N[C@H]1CCc2ccccc21 [SAI, (S)-1-aminoindan]
PROTECTION % OF RESPECTIVE CONTROL (male ICR albino mice; 50 mg/kg ip one hour prior to hypoxia): 174±39 % OF RESPECTIVE CONTROL
PROTECTION % OF RESPECTIVE CONTROL (male ICR albino mice; 100 mg/kg ip one hour prior to hypoxia): 404±244 % OF RESPECTIVE CONTROL
PROTECTION % OF RESPECTIVE CONTROL (male ICR albino mice; dose cell empty (line below 50 mg/kg ip)): 264±66 % OF RESPECTIVE CONTROL
EFFECTIVE PROTECTION ([8]; 0.01 µM): 43%
EFFECTIVE PROTECTION ([8]; 0.05 µM): 57%
RATS TD50 (rats [1]; Table 16): >500 mg/kg
TD50 (in vivo): > 500 mg/kg
ED50 (rats [2]; read-out: RATS MES 50): 17 mg/kg
MICE TD50 (mice [3]; mice, i.p., Table 16): 25 mg/kg
TD50 [4]: 25 mg/kg
NSS 1hr (rats [9]; [13]): 16.4
NSS 24hr (rats [9]; [13]): 10.8
ΔNSS (rats [9]; Exp 4A, 0.1mg/kg i.p. at 0,4,8 and 12 hours post-trauma, change 1 hour to 24 hours): 5.6±0.5
NSS at 1hr (rats [9]; [14]): 16.6±0.3
ΔNSS at 24hr (rats [9]; [14]): 5.5±0.4
ΔNSS at 48hr (rats [9]; [14]): 6.8±2.7
ΔNSS at 7d (rats [9]; [14]): 8.3±1.0
ΔNSS at 14d (rats [9]; [14]): 9.5±1.0
PERCENT PROTECTION (Male mongolian gerbils; 0.1 mg/kg ip): 0%
PERCENT PROTECTION (Male mongolian gerbils; 1.0 mg/kg ip): 50.0%
PERCENT PROTECTION (Male mongolian gerbils; 10.0 mg/kg ip): 75.0%
